Series [1] addresses α1 adrenoceptor. The series is described as follows: α1 adrenoceptor affinity, prazosin (PRA) binding.
Description: (§1) The activities are expressed as pKi values (-log Ki values; Ki being the binding constant). The sigma receptor binding was assessed by the 1,3-di-o-tolylguanidine (DTG) binding as described by Fox et al., Eur. J. Pharmacol., 193, 139-143, 1991. The α1 adrenoceptor affinity was assessed by the prazosin (PRA) binding as described by de Boer et al., Arzneim. Forsch., 40, 550-554, 1990.
Series [2] concerns sigma receptor. The settings on record: in words; disclosed in WO 91/09594; cited from earlier work.
The subject of series [3] is α1 adrenoceptor. The series can be described thus: α1 adrenoceptor activity of the prior art compounds (statement in background). The settings on record: in words.
Series [4] concerns the target sigma receptor. The series is described as follows: sigma receptor binding, 1,3-di-o-tolylguanidine (DTG) binding. The following applies: 1,3-di-o-tolylguanidine binding.
Description: as §1
For series [5] the following is noted: in words; literature (Tamminga and Gerlach); cited from earlier work.

SMILES strings stand for the structures.

Turning to `c1ccc(CCCN2CCN(c3ccccc3)CC2)cc1` [Compound 46 of WO 91/09594], the “PRA pKi (-log Ki)” value in series [1] came out at 8.7. Moreover, the sigma receptor affinity entry in series [2] is “displaying sigma receptor affinity”. In addition, in series [3], the α1 adrenoceptor activity entry was “possess α1 adrenoceptor activity”. Further, the “DTG pKi (-log Ki)” value in series [4] was found to be 8.2.

Regarding `c1ccc(CCCCN2CCN(Cc3ccccc3)CC2)cc1` [Compound 79 of WO 91/09594], the “PRA pKi (-log Ki)” value in series [1] is 7.4. Also, the sigma receptor affinity result in series [2] is listed as “displaying sigma receptor affinity”. Moreover, the α1 adrenoceptor activity result in series [3] is “possess α1 adrenoceptor activity”. Also, the “DTG pKi (-log Ki)” value in series [4] was 8.6.

Take `Cl.Cl.c1ccc(CCCN2CCN(CCOCc3ccccc3)CC2)cc1` [Compound of Example 1, 1-[2-(phenylmethoxy)ethyl]-4-(3-phenylpropyl)piperazine dihydrochloride]: the “PRA pKi (-log Ki)” value in series [1] is listed as 5.7. The “DTG pKi (-log Ki)” value in series [4] turned out to be 8.7.

`CN1CCN(C2=Nc3cc(Cl)ccc3Nc3ccccc32)CC1` [clozapine]: in series [5], the “induction of orthostatic hypotension” value was “induction of orthostatic hypotension”.

(Values after patent US5281598A, “Piperazine derivatives” (Akzo N.V., priority 1992, dated 1994).)
